These results are taken from US10189839B2, “Tricyclic imidazole compounds as inhibitors of tryptophan hydroxylase” (ACTELION PHARMACEUTICALS LTD, priority 2013, dated 2019).

The subject of assay [1] is 5HT. The conditions noted are these: 200 mg/kg i.p. qid for 3 days; cited from earlier work.
In assay [2] the test system is cholangiocarcinoma. The conditions noted are these: xenograft model of cholangiocarcinoma; cited from earlier work.
The target of assay [3] is T1, full length human TPH1 (Homo sapiens, UniProt P17752).
T1 construct: To generate the enzyme, full length human TPH1 is cloned into the plasmid pET20b(+); made in house; host or cells: E. coli
T1 sequence (P17752 1-444): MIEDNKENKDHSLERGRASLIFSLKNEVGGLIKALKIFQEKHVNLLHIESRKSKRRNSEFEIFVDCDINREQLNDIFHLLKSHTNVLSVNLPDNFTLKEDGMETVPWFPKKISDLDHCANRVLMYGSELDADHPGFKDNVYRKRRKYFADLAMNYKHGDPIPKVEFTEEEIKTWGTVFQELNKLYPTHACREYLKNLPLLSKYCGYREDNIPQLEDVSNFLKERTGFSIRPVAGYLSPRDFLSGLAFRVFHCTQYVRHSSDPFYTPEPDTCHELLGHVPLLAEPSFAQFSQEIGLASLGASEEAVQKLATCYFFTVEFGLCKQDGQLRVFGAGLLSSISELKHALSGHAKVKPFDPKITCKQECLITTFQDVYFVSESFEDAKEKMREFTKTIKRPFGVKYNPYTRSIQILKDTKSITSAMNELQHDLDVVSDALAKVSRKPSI
Put plainly: Biochemical in vitro assay using fluorescence readout (TPH1 enzyme activity). The conditions noted are these: Table 1, mean where determined several times. In a few lines: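 E. coli-expressed full-length human TPH1 (40-80 nM), affinity- and size-exclusion-purified, incubated 60 min at 15° C. in 0.1M Tris-HCl pH 7.6 with 1 mM DTT, 0.2 mg/ml catalase, 100 μM 6-methyltetrahydropterine and 40 μM L-tryptophan. 5-Hydroxy-L-tryptophan read by fluorescence (ex 300/em 540 nm) after HClO4 quench; IC50 versus vehicle, mean where repeated.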

In assay [4] the test system is 5HT. The conditions noted are these: mice; cited from earlier work.
The test system of assay [5] is 5HT. The conditions noted are these: in vivo; cited from earlier work.
The subject of assay [6] is blood 5HT and urinary 5HIAA. The conditions noted are these: phase IIA study, qid; cited from earlier work.

In the case of `N[C@@H](Cc1ccc(Cl)cc1)C(=O)O` (racemic) [PCA, p-chlorophenylalanine], in assay [1], the “5HT in the brain” value is listed as about 20 % original and the “5HT in the gut” value is listed as about 50 % original. The tumor volume result in assay [2] is listed as “dramatic reduction in tumor volume”. Usually IC50 stands for the concentration at which inhibition is half-maximal. `CC(=O)N1CCn2c(nc3c2C(c2ccc(Cl)cn2)N(C(=O)COc2ccc(N4CCOCC4)nc2Cl)CC3)C1` (stereo not shown) [Example 5.15.1, 1-(7-acetyl-1-(5-chloropyridin-2-yl)-3,4,6,7,8,9-hexahydropyrido[4′,3′:4,5]imidazo[1,2-a]pyrazin-2(1H)-yl)-2-((2-chloro-6-morpholinopyridin-3-yl)oxy)ethanone] yielded an IC50 in assay [3] of 11 nM. For `CC(=O)N1CCn2c(nc3c2C(c2cc(Cl)ccn2)N(C(=O)COc2ccc(N4CCOCC4)nc2Cl)CC3)C1` (stereo not shown) [Example 5.16.1, 1-(7-acetyl-1-(4-chloropyridin-2-yl)-3,4,6,7,8,9-hexahydropyrido[4′,3′:4,5]imidazo[1,2-a]pyrazin-2(1H)-yl)-2-((2-chloro-6-morpholinopyridin-3-yl)oxy)ethanone], in assay [3], the IC50 turned out to be 48 nM.

In assay [3], `CC(=O)N1CCn2c(nc3c2C(c2sc(C)nc2C)N(C(=O)COc2ccc(-c4ncco4)nc2Cl)CC3)C1` (stereo not shown) [Example 5.17.1, 1-(7-acetyl-1-(2,4-dimethylthiazol-5-yl)-3,4,6,7,8,9-hexahydropyrido[4′,3′:4,5]imidazo[1,2-a]pyrazin-2(1H)-yl)-2-((2-chloro-6-(oxazol-2-yl)pyridin-3-yl)oxy)ethanone] registered a half-maximal inhibitory concentration (IC50) of 27 nM.

`O=C(COc1ccc(N2CCOCC2)nc1Cl)N1CCc2nc3n(c2C1c1ccc(Cl)cc1F)CCOC3` (stereo not shown) [Example 6.1.1, 1-(6-(4-chloro-2-fluorophenyl)-3,4,8,9-tetrahydro-1 H-pyrido[4′,3′:4,5]imidazo[2,1-c][1,4]oxazin-7(6H)-yl)-2-((2-chloro-6-morpholinopyridin-3-yl)oxy)ethanone]: in assay [3], the IC50 is 4 nM. Regarding `CS(=O)(=O)Nc1ccc(OCC(=O)N2CCc3nc4n(c3C2c2ccc(Cl)cc2F)CCOC4)c(Cl)n1` (stereo not shown) [Example 6.1.2, N-(6-chloro-5-(2-(6-(4-chloro-2-fluorophenyl)-3,4,8,9-tetrahydro-1H-pyrido[4′,3′:4,5]imidazo[2,1-c][1,4]oxazin-7(6H)-yl)-2-oxoethoxy)pyridin-2-yl)methanesulfonamide], the concentration for half-maximal inhibition (IC50) in assay [3] amounted to 18 nM. For `O=C(COc1ccc(N2CCOCC2)nc1Cl)N1CCc2nc3n(c2C1c1ccc(C2CC2)cc1F)CCOC3` (stereo not shown) [Example 6.2.1, 2-((2-chloro-6-morpholinopyridin-3-yl)oxy)-1-(6-(4-cyclopropyl-2-fluorophenyl)-3,4,8,9-tetrahydro-1H-pyrido[4′,3′:4,5]imidazo[2,1-c][1,4]oxazin-7(6H)-yl)ethanone], the IC50 in assay [3] was 4 nM. On the same count and under the same terms, the result for `CN(C)C(=O)c1ccc(OCC(=O)N2CCc3nc4n(c3C2c2ccc(C3CC3)cc2F)CCOC4)c(Cl)c1` (stereo not shown) [Example 6.2.2, 3-chloro-4-(2-(6-(4-cyclopropyl-2-fluorophenyl)-3,4,8,9-tetrahydro-1H-pyrido[4′,3′:4,5]imidazo[2,1-c][1,4]oxazin-7(6H)-yl)-2-oxoethoxy)-N,N-dimethylbenzamide] reads 13 nM.

Turning to `CN(C)C(=O)c1ccc(OCC(=O)N2CCc3nc4n(c3C2c2ccc(C3CC3)cc2F)CCOC4)c(Cl)n1` (stereo not shown) [Example 6.2.3, 6-chloro-5-(2-(6-(4-cyclopropyl-2-fluorophenyl)-3,4,8,9-tetrahydro-1H-pyrido[4′,3′:4,5]imidazo[2,1-c][1,4]oxazin-7(6H)-yl)-2-oxoethoxy)-N,N-dimethylpicolinamide], the IC50 in assay [3] came to 3 nM. As to `CN(C)C(=O)c1ccc(OCC(=O)N2CCc3nc4n(c3C2c2sc(C(=O)N(C)C)cc2F)CCOC4)c(Cl)n1` (stereo not shown) [Example 6.3.1, 6-chloro-5-(2-(6-(5-(dimethylcarbamoyl)-3-fluoro-thiophen-2-yl)-3,4,8,9-tetrahydro-1H-pyrido[4′,3′:4,5]imidazo[2,1-c][1,4]oxazin-7(6H)-yl)-2-oxoethoxy)-N,N-dimethylpicolinamide], the half-inhibitory concentration (IC50) in assay [3] stood at 37 nM.

In turn, `CS(=O)(=O)Nc1ccc(OCC(=O)N2CCc3nc4n(c3C2c2ncc(Cl)cc2F)CCOC4)c(Cl)n1` (stereo not shown) [Example 6.4.1, N-(6-chloro-5-(2-(6-(5-chloro-3-fluoropyridin-2-yl)-3,4,8,9-tetrahydro-1H-pyrido[4′,3′:4,5]imidazo[2,1-c][1,4]oxazin-7(6H)-yl)-2-oxoethoxy)pyridin-2-yl)methanesulfonamide] showed an IC50 in assay [3] of 143 nM. This IC50 is about 3.9-fold higher than that of the molecule before. `CN(C)C(=O)c1ccc(OCC(=O)N2CCc3nc4n(c3C2c2ncc(Cl)cc2F)CCOC4)c(Cl)n1` (stereo not shown) [Example 6.4.2, 6-chloro-5-(2-(6-(5-chloro-3-fluoropyridin-2-yl)-3,4,8,9-tetrahydro-1H-pyrido[4′,3′:4,5]imidazo[2,1-c][1,4]oxazin-7(6H)-yl)-2-oxoethoxy)-N,N-dimethylpicolinamide] gave an IC50 in assay [3] of 76 nM. As to `Cc1ccc(C2c3c(nc4n3CCOC4)CCN2C(=O)COc2ccc(C(=O)N(C)C)nc2Cl)c(F)c1` (stereo not shown) [Example 6.5.1, 6-chloro-5-(2-(6-(2-fluoro-4-methylphenyl)-3,4,8,9-tetrahydro-1H-pyrido[4′,3′:4,5]imidazo[2,1-c][1,4]oxazin-7(6H)-yl)-2-oxoethoxy)-N,N-dimethylpicolinamide], it took 7 nM to reach half-maximal inhibition in assay [3] (IC50). `O=C(COc1ccc(N2CCOCC2)nc1Cl)N1CCc2nc3n(c2C1c1sccc1F)CCOC3` (stereo not shown) [Example 6.6.1, 2-((2-chloro-6-morpholinopyridin-3-yl)oxy)-1-(6-(3-fluorothiophen-2-yl)-3,4,8,9-tetrahydro-1H-pyrido[4′,3′:4,5]imidazo[2,1-c][1,4]oxazin-7(6H)-yl)ethanone] returned an IC50 in assay [3] of 8 nM.

For `CN(C)C(=O)c1ccc(OCC(=O)N2CCc3nc4n(c3C2c2sccc2F)CCOC4)c(Cl)n1` (stereo not shown) [Example 6.6.2, 6-chloro-5-(2-(6-(3-fluorothiophen-2-yl)-3,4,8,9-tetrahydro-1H-pyrido[4′,3′:4,5]imidazo[2,1-c][1,4]oxazin-7(6H)-yl)-2-oxoethoxy)-N,N-dimethylpicolinamide], in assay [3], the IC50 is 29 nM. The same measure, in the same setting: the result for `CS(=O)(=O)Nc1ccc(OCC(=O)N2CCc3nc4n(c3C2c2sccc2F)CCOC4)c(Cl)n1` (stereo not shown) [Example 6.6.3, N-(6-chloro-5-(2-(6-(3-fluorothiophen-2-yl)-3,4,8,9-tetrahydro-1H-pyrido[4′,3′:4,5]imidazo[2,1-c][1,4]oxazin-7(6H)-yl)-2-oxoethoxy)pyridin-2-yl)methanesulfonamide] reads 160 nM. For `Nc1nc(OC(c2ccc(-c3cccc(F)c3)cc2)C(F)(F)F)cc(-c2ccc(C[C@H](N)C(=O)O)cc2)n1` (stereo partly shown) [LP533401], in assay [4], the “brain 5HT concentrations” value is “without effecting brain concentrations” and the “gut 5HT” value is “lower gut 5HT”. For the molecule `COc1cccc(-c2ccc([C@@H](Oc3cc(-c4ccc(C[C@H](N)C(=O)O)cc4)nc(N)n3)C(F)(F)F)cc2)c1` [LX1031, (S)-2-Amino-3-(4-{2-amino-6-[(R)-2,2,2-trifluoro-1-(3′-methoxy-biphenyl-4-yl)-ethoxy]-pyrimidin-4-yl}-phenyl)-propionic acid], in assay [5], the “5HT in the colon” value was “only a minor reduction observed in the colon”, the “5HT in the jejunum” value is given as “lowers 5HT in the jejunum” and the “brain 5HT” value is “no effect on brain 5HT”. In addition, in assay [6], the “blood 5HT” value is “did not affect blood 5HT” and the “urinary 5HIAA reduction” value is listed as “up to 30%”.
